Entries after “also recorded” stand apart in the source; their conditions may differ.
Target: T1, Human leukocyte elastase (HLE) (Homo sapiens, UniProt P08246)
T1 construct: purchased Elastin Products, St. Louis, Mo
T1 sequence (P08246 30-267): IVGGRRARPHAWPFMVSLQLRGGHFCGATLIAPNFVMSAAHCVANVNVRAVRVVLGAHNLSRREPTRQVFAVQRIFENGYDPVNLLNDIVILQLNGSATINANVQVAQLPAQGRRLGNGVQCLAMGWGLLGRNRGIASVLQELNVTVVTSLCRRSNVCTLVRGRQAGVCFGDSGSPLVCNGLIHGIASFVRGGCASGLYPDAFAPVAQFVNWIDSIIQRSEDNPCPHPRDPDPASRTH
Test: Spectrophotometric assay of HLE inactivation (in vitro)
Format: biochemical
Conditions: not given
Experimental: The appropriate amount of inhibitor in acetonitrile was mixed with PPE in phosphate buffer solution and placed in a constant temperature bath. Aliquots were withdrawn at different time intervals and transferred to a cuvette containing 100 uL of substrate, 140 uL of acetonitrile, and 2 mL of phosphate buffer, pH 6.5. After incubating for 30 seconds, the absorbance change was monitored for two minutes at 347.5 nm. […] Controlled reactions for 100% PPE activity were run in the presence of acetonitrile. A similar procedure was followed for HLE.
The reaction of an irreversible inhibitor with PPE and HLE may be illustrated by the scheme shown below: [drawing 5] where EI is the noncovalently bound enzyme-inactivator complex and E-I is the final product with the inhibitor covalently bound to the enzyme. The kinetics data were analyzed according to known procedures. The apparent pseudo-first-order inactivation rate constants were determined from the slopes of semilogarithmic plots of enzymatic activity remaining versus time using the following equation: [formula] where Et /EO is the amount of active enzyme remaining after time "t".
The assay procedure used was the procedure identified relative to the tests above in Table I.
(kobsd) were determined by plotting in [E]t /[E]o vs time.

Inhibition of HLE (in words)	SMILES
devoid of any inhibitory activity	COC(=O)[C@H](C)NC(=O)S(=O)(=O)O [Compound 2, Table II]
devoid of any inhibitory activity	COC(=O)CNC(=O)S(=O)(=O)O [Compound 1, Table II]
no inhibitory activity	CCC[C@@H](NC(=O)S(=O)(=O)O)C(=O)OC [Compound 5, Table II]
inactive	CC[S+]([O-])C[C@H](NC(=O)S(=O)(=O)O)C(=O)OC (stereo partly drawn) [Compound 4, Table VI]
inactive	COC(=O)[C@H](CC[S+](C)[O-])NC(=O)S(=O)(=O)O (stereo partly drawn) [Compound 2, Table VI]

Same assay, conditions: Table II monopotassium sulfonate salts

k2 /Ki (HLE)	SMILES
inactive	COC(=O)[C@H](C)NC(=O)S(=O)(=O)O [Compound 2, Table II]
inactive	COC(=O)CNC(=O)S(=O)(=O)O [Compound 1, Table II]
inactive	CCC[C@@H](NC(=O)S(=O)(=O)O)C(=O)OC [Compound 5, Table II]

Same assay, conditions: Table II monopotassium sulfonate salts; read-out: k2 /Ki (HLE)

kinact/KI	SMILES
260 M⁻¹ s⁻¹	COC(=O)[C@H](CCSC)NC(=O)S(=O)(=O)O [Compound 8, Table II]
260 M⁻¹ s⁻¹	COC(=O)[C@H](CC(C)C)NC(=O)S(=O)(=O)O [Compound 7, Table II]
920 M⁻¹ s⁻¹	CCCC[C@H](NC(=O)S(=O)(=O)O)C(=O)OC [Compound 6, Table II]
800 M⁻¹ s⁻¹	COC(=O)[C@@H](NC(=O)S(=O)(=O)O)C(C)C [Compound 3, Table II]

SMILES	kinact/KI
COC(=O)[C@H](Cc1ccccc1)NC(=O)S(=O)(=O)[O-].[K+] [Compound 9, Table II, N-(Sulfocarbonyl)-L-phenylalanine Methyl Ester, Monopotassium Salt]	530 M⁻¹ s⁻¹

Same assay, conditions: Table III; inactive: no inhibition at 243fold excess of inhibitor over enzyme, 10min incubation

SMILES	kobsd /[I], inhibition of leukocyte elastase
O=C(NCc1cccc(C(F)(F)F)c1)S(=O)(=O)O [Compound 13, Table III]	inactive
O=C(Nc1ccccc1C(F)(F)F)n1ccnc1 [Compound 9, Table III]	inactive
O=C(Nc1cccc(F)c1)n1ccnc1 [Compound 8, Table III]	inactive
O=C(Nc1ccc(Cl)cc1)S(=O)(=O)O [Compound 3, Table III]	inactive
O=C(Nc1ccccc1C(F)(F)F)S(=O)(=O)O [Compound 5, Table III]	inactive
O=C(Nc1ccccc1)S(=O)(=O)O [Compound 1, Table III]	inactive
O=C(Nc1cccc(C(F)(F)F)c1)n1ccnc1 [Compound 10, Table III]	inactive
O=C(NCc1ccc(C(F)(F)F)cc1)n1ccnc1 [Compound 11, Table III]	inactive
O=C(Nc1cccc(F)c1)S(=O)(=O)O [Compound 4, Table III]	inactive
O=C(NCc1cccc(F)c1)S(=O)(=O)O [Compound 12, Table III]	inactive
O=C(Nc1cccc(Cl)c1)S(=O)(=O)O [Compound 2, Table III]	inactive
O=C(Nc1ccc(C(F)(F)F)cc1)S(=O)(=O)O [Compound 7, Table III]	inactive
O=C(Nc1cccc(C(F)(F)F)c1)S(=O)(=O)O [Compound 6, Table III]	inactive

The remaining lines, values ahead:

kobsd /[I], inhibition of leukocyte elastase	SMILES
inactive	O=C(NCc1cccc(C(F)(F)F)c1)n1ccnc1 [Compound 15]
inactive	O=C(NCc1cccc(F)c1)n1ccnc1 [Compound 14]

Same assay, conditions: Table III; inactive: no inhibition at 243fold excess of inhibitor over enzyme, 10min incubation; read-out: kobsd /[I], inhibition of leukocyte elastase

kinact/KI	SMILES
11700 M⁻¹ s⁻¹	O=C(NCCc1cccc(C(F)(F)F)c1)n1ccccc1=O [Compound 23]
13500 M⁻¹ s⁻¹	O=C(NCCc1cccc(C(F)(F)F)c1)ON1C(=O)CCC1=O [Compound 26]
927 M⁻¹ s⁻¹	O=C(NCCc1ccccc1)ON1C(=O)CCC1=O [Compound 24]
35 M⁻¹ s⁻¹	O=C(NCCc1ccccc1)n1ccnc1 [Compound 18]
4 M⁻¹ s⁻¹	O=C(NCCc1ccccc1)S(=O)(=O)O [Compound 16]
823 M⁻¹ s⁻¹	O=C(NCCc1cccc(F)c1)ON1C(=O)CCC1=O [Compound 25]
18 M⁻¹ s⁻¹	O=C(NCCc1cccc(F)c1)S(=O)(=O)O [Compound 17, Table III]
483 M⁻¹ s⁻¹	O=C(NCCc1cccc(C(F)(F)F)c1)n1ccnc1 [Compound 20]
500 M⁻¹ s⁻¹	O=C(NCCc1ccccc1)n1ccccc1=O [Compound 21]
317 M⁻¹ s⁻¹	O=C(NCCc1cccc(F)c1)n1ccccc1=O [Compound 22]
38 M⁻¹ s⁻¹	O=C(NCCc1cccc(F)c1)n1ccnc1 [Compound 19]

Same assay, conditions: Table IV, derivatives of phenylalanine; read-out: kobsd /[I], inhibition of leukocyte elastase

kinact/KI	SMILES
2070 M⁻¹ s⁻¹	COC(=O)[C@H](Cc1ccccc1)NC(=O)n1ccnc1 [Compound 28]
1100 M⁻¹ s⁻¹	COC(=O)C(Cc1cccc(C(F)(F)F)c1)NC(=O)n1ccnc1 (stereo not drawn) [Compound 34]
57 M⁻¹ s⁻¹	COC(=O)C(Cc1cccc(F)c1)NC(=O)S(=O)(=O)O (stereo not drawn) [Compound 31]
6640 M⁻¹ s⁻¹	COC(=O)[C@H](Cc1ccccc1)NC(=O)ON1C(=O)CCC1=O [Compound 30]
318 M⁻¹ s⁻¹	COC(=O)C(Cc1cccc(F)c1)NC(=O)n1ccnc1 (stereo not drawn) [Compound 33]
2330 M⁻¹ s⁻¹	COC(=O)[C@H](Cc1ccccc1)NC(=O)n1ccccc1=O [Compound 29]
13 M⁻¹ s⁻¹	COC(=O)C(Cc1cccc(C(F)(F)F)c1)NC(=O)S(=O)(=O)O (stereo not drawn) [Compound 32]

SMILES	kinact/KI
COC(=O)[C@H](Cc1ccccc1)NC(=O)S(=O)(=O)O [Compound 27]	550 M⁻¹ s⁻¹

Same assay, conditions: Table V, succinimide derivatives

kobsd /[I], inhibition of leukocyte elastase	SMILES
inactive	Cc1ccc(S(=O)(=O)ON2C(=O)CCC2=O)cc1
inactive	CS(=O)(=O)ON1C(=O)CCC1=O [H, OSO2CH3]

Same assay, conditions: Table V, succinimide derivatives; read-out: kobsd /[I], inhibition of leukocyte elastase

kinact/KI	SMILES
323 M⁻¹ s⁻¹	CN(C)S(=O)(=O)ON1C(=O)CC(Cc2ccccc2)C1=O (stereo not drawn) [BENZYL, OSO2N(CH3)2]
1650 M⁻¹ s⁻¹	O=C1CC(Cc2ccccc2)C(=O)N1OS(=O)(=O)c1ccc(Br)cc1 (stereo not drawn)
1170 M⁻¹ s⁻¹	O=C1CC(Cc2ccccc2)C(=O)N1OS(=O)(=O)c1ccccc1 (stereo not drawn)
1270 M⁻¹ s⁻¹	CCCCCCCCS(=O)(=O)ON1C(=O)CC(Cc2ccccc2)C1=O (stereo not drawn) [BENZYL, OSO2(CH2)7 CH3]
1610 M⁻¹ s⁻¹	Cc1ccc(S(=O)(=O)ON2C(=O)CC(Cc3ccccc3)C2=O)cc1 (stereo not drawn)
1680 M⁻¹ s⁻¹	CCCCS(=O)(=O)ON1C(=O)CC(Cc2ccccc2)C1=O (stereo not drawn) [BENZYL, OSO2(CH2)3 CH3]

Same assay, conditions: Table VI, sulfur-containing amino acid esters

kobsd /[I], inhibition of HLE	SMILES
inactive	COC(=O)[C@H](CSCc1ccccc1)NC(=O)S(=O)(=O)O [Compound 6, Table VI]
inactive	CC[S+]([O-])C[C@H](NC(=O)S(=O)(=O)O)C(=O)OC (stereo partly drawn) [Compound 4, Table VI]
inactive	COC(=O)[C@H](CC[S+](C)[O-])NC(=O)S(=O)(=O)O (stereo partly drawn) [Compound 2, Table VI]
inactive	COC(=O)[C@H](CSSC[C@H](NC(=O)S(=O)(=O)O)C(=O)OC)NC(=O)S(=O)(=O)O [Compound 7, Table VI]

Same assay, conditions: Table VI, sulfur-containing amino acid esters; read-out: kobsd /[I], inhibition of HLE

kinact/KI	SMILES
4050 M⁻¹ s⁻¹	COC(=O)[C@H](CSC)NC(=O)n1ccnc1 [Compound 9, Table VI]
15 M⁻¹ s⁻¹	COC(=O)CSC[C@H](NC(=O)n1ccnc1)C(=O)OC [Compound 11, Table VI]
1510 M⁻¹ s⁻¹	COC(=O)[C@H](CSC)NC(=O)S(=O)(=O)O [Compound 5, Table VI]
17 M⁻¹ s⁻¹	COC(=O)CSC[C@H](NC(=O)S(=O)(=O)O)C(=O)OC [Compound 8, Table VI]
4230 M⁻¹ s⁻¹	CCSC[C@H](NC(=O)n1ccnc1)C(=O)OC [Compound 10, Table VI]

Same assay, conditions: listed as L-leucine sulfonate salt

SMILES	Inhibition of HLE (in words)
COC(=O)[C@H](CC(C)C)NC(=O)S(=O)(=O)O [Compound 7, Table II]	also deactivate HLE but were not as effective; also recorded: also inactivate HLE, but not as efficiently; also recorded: effective inhibitors

Same assay, conditions: listed as L-methionine sulfonate salt

SMILES	Inhibition of HLE (in words)
COC(=O)[C@H](CCSC)NC(=O)S(=O)(=O)O [Compound 8, Table II]	also deactivate HLE but were not as effective; also recorded: also inactivate HLE, but not as efficiently; also recorded: effective inhibitors

Same assay, conditions: listed as L-norleucine sulfonate salt

SMILES	Inhibition of HLE (in words)
CCCC[C@H](NC(=O)S(=O)(=O)O)C(=O)OC [Compound 6, Table II]	very potent inhibitors; also recorded: effective inhibitors

Same assay, conditions: listed as L-phenylalanine sulfonate salt, Monopotassium Salt

SMILES	Inhibition of HLE (in words)
COC(=O)[C@H](Cc1ccccc1)NC(=O)S(=O)(=O)[O-].[K+] [Compound 9, Table II, N-(Sulfocarbonyl)-L-phenylalanine Methyl Ester, Monopotassium Salt]	also deactivate HLE but were not as effective; also recorded: also inactivate HLE, but not as efficiently; also recorded: effective inhibitors

Same assay, conditions: listed as L-valine sulfonate salt

SMILES	Inhibition of HLE (in words)
COC(=O)[C@@H](NC(=O)S(=O)(=O)O)C(C)C [Compound 3, Table II]	very potent inhibitors; also recorded: effective inhibitors

From patent US4929736A, “Latent isocynate derivatives useful for deactivating enzymes” (Board of Trustees of the Wichita State University, priority 1986, dated 1990)
